The target of this test is T1, Recombinant human liver GK1 (GST-GK) (Homo sapiens, UniProt P35557).
T1 construct: made in house; host or cells: E. coli
T1 sequence (P35557 1-466 isoform P35557-2): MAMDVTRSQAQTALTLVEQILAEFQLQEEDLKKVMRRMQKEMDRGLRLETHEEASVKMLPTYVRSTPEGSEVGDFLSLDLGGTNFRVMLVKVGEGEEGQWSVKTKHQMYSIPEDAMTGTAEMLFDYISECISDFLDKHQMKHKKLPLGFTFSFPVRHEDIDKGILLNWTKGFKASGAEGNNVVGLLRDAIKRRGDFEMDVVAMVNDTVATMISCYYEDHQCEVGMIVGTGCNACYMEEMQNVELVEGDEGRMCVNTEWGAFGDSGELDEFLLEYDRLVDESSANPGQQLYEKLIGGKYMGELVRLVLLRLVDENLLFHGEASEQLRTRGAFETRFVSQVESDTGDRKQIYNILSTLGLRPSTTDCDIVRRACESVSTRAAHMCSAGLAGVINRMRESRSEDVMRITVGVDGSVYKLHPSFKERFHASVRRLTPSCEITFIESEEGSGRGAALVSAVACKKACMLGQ
In words: In vitro glucokinase activity (G6PDH-coupled NADH generation assay). It counts as biochemical. Details: unit not given here. Particulars: concentration of activator that produced a 50% increase in the activity of GK; 5 mM D-glucose, 30° C., pH 7.1, 10% DMSO. On the procedure: Glucokinase In Vitro Assay Protocol: Glucokinase (GK) was assayed by coupling the production of glucose-6-phosphate to the generation of NADH with glucose-6-phosphate dehydrogenase (G6PDH, 0.75-1 kunits/mg; Boehringer Mannheim, Indianapolis, Ind.) from Leuconostoc mesenteroides as the coupling enzyme:
Recombinant human liver GK1 was expressed in E. coli as a glutathione S-transferase fusion protein (GST-GK) [Liang et al, 1995]and was purified by chromatography over a glutathione-Sepharose 4B affinity column using the procedure provided by the manufacturer (Amersham Pharmacia Biotech, Piscataway, N.J.).
The assay was conducted at 30° C. in a flat bottom 96-well tissue culture plate from Costar (Cambridge, Mass.) with a final incubation volume of 120 μL. The incubation reaction contained the following: 25 mM Hepes buffer (pH 7.1), 25 mM KCl, 5 mM D-glucose, 1 mM ATP, 1.8 mM NAD, 2 mM MgCl2, 1 μM sorbitol-6-phosphate, 1 mM dithiothreitol, test drug or 10% DMSO, ˜7 units/ml G6PDH, and GK (see below). All organic reagents were >98% pure and were from Boehringer Mannheim with the exceptions of D-glucose and Hepes which were from Sigma Chemical Co, St Louis, Mo. Test compounds were dissolved in DMSO and were added to the incubation reaction minus GST-GK in a volume of 12 μL to yield a final DMSO concentration of 10%. This mix was pre-incubated in the temperature controlled chamber of a SPECTRAmax 250 microplate spectrophotometer (Molecular Devices Corporation, Sunnyvale, Calif.) for 10 minutes to allow temperature equilibrium and then the reaction was started by the addition of 20 μL GST-GK.
After addition of enzyme, the increase in optical density (OD) at 340 nm was monitored spectrophotometrically to determine the rate of change (OD340 per min). The GK activity (OD340/min) in control wells (10% DMSO minus GK activators) was compared with the activity in wells containing test GK activators, and the concentration of activator that produced a 50% increase in the activity of GK, i.e., the SC1.5:0.1, was calculated. The table below provides the in vitro glucokinase activity for the compounds in the Examples: […]

For the compound `COc1cccc2c1CC1=C(O2)C(=O)N([C@@H](CC(C)C)C(=O)Nc2nccs2)C1` [Example 11, (S)-2-(8-Methoxy-3-oxo-3,9-dihydro-1H-chromeno[2,3-c]pyrrol-2-yl)-4-methyl-pentanoic acid thiazol-2-ylamide], the “SC 1.5:0.1” value was found to be 8.123. Under `COc1cccc2c1CC1=C(O2)C(=O)N([C@@H](CC2CCCCC2)C(=O)Nc2ccn(C[C@@H](O)CO)n2)C1` [Example 25, (S)-3-Cyclohexyl-N-[1-((R)-2,3-dihydroxy-propyl)-1H-pyrazol-3-yl]-2-(8-methoxy-3-oxo-3,9-dihydro-1H-chromeno[2,3-c]pyrrol-2-yl)-propionamide] stands 0.507. Under `CC(C)C[C@@H](C(=O)Nc1nccs1)N1CC2=C(Oc3c(Cl)cccc3C2)C1=O` [Example 24, (S)-2-(5-Chloro-3-oxo-3,9-dihydro-1H-chromeno[2,3-c]pyrrol-2-yl)-4-methyl-pentanoic acid thiazol-2-ylamide] stands 18.957. `O=C(Nc1ccccn1)[C@H](CC1CCCCC1)N1CC2=C(Oc3cccc(Cl)c3C2)C1=O` [Example 1, (S)-2-(8-Chloro-3-oxo-3,9-dihydro-1H-chromeno[2,3-c]pyrrol-2-yl)-3-cyclohexyl-N-pyridin-2-yl-propionamide]: the “SC 1.5:0.1” value is 1.311. On to `COC(=O)c1ccc(NC(=O)[C@H](CC(C)C)N2CC3=C(Oc4cccc(OC)c4C3)C2=O)nc1` [Example 12, 6-[(S)-2-(8-Methoxy-3-oxo-3,9-dihydro-1H-chromeno[2,3-c]pyrrol-2-yl)-4-methyl-pentanoylamino]-nicotinic acid methyl ester], for which the “SC 1.5:0.1” value came to 0.906. Under `CC(C)C[C@@H](C(=O)Nc1ccccn1)N1CC2=C(Oc3c(Cl)cccc3C2)C1=O` [Example 23, (S)-2-(5-Chloro-3-oxo-3,9-dihydro-1H-chromeno[2,3-c]pyrrol-2-yl)-4-methyl-pentanoic acid pyridin-2-ylamide] stands 11.865; under `COc1cccc2c1CC1=C(O2)C(=O)N([C@@H](CC2CCCCC2)C(=O)Nc2ccccn2)C1` [Example 7, (S)-3-Cyclohexyl-2-(8-methoxy-3-oxo-3,9-dihydro-1H-chromeno[2,3-c]pyrrol-2-yl)-N-pyridin-2-yl-propionamide], 0.333. Under `COc1ccc(OC)c2c1CC1=C(O2)C(=O)N([C@@H](CC(C)C)C(=O)Nc2ccc(Cl)cn2)C1` [Example 14, (S)-2-(5,8-Dimethoxy-3-oxo-3,9-dihydro-1H-chromeno[2,3-c]pyrrol-2-yl)-4-methyl-pentanoic acid (5-chloro-pyridin-2-yl)-amide] stands 0.911; under `COC(=O)c1ccc(NC(=O)[C@H](CC(C)C)N2CC3=C(Oc4cccc(Cl)c4C3)C2=O)nc1` [Example 6, 6-[(S)-2-(8-Chloro-3-oxo-3,9-dihydro-1H-chromeno[2,3-c]pyrrol-2-yl)-4-methyl-pentanoylamino]-nicotinic acid methyl ester], 3.324; under `COC(=O)c1ccc(NC(=O)[C@H](CC2CCCCC2)N2CC3=C(Oc4cccc(OC)c4C3)C2=O)nc1` [Example 10, 6-[(S)-3-Cyclohexyl-2-(8-methoxy-3-oxo-3,9-dihydro-1H-chromeno[2,3-c]pyrrol-2-yl)-propionylamino]-nicotinic acid methyl ester], 0.302.

Regarding `COc1ccc(OC)c2c1CC1=C(O2)C(=O)N([C@@H](CC(C)C)C(=O)Nc2ccccn2)C1` [Example 18, (S)-2-(5,8-Dimethoxy-3-oxo-3,9-dihydro-1H-chromeno[2,3-c]pyrrol-2-yl)-4-methyl-pentanoic acid pyridin-2-ylamide], the “SC 1.5:0.1” value stood at 2.532.

For `CC(C)C[C@@H](C(=O)Nc1nccs1)N1CC2=C(Oc3cccc(Cl)c3C2)C1=O` [Example 5, (S)-2-(8-Chloro-3-oxo-3,9-dihydro-1H-chromeno[2,3-c]pyrrol-2-yl)-4-methyl-pentanoic acid thiazol-2-ylamide], the “SC 1.5:0.1” value was found to be 9.277. Under `O=C(Nc1ccccn1)[C@H](CC1CCCCC1)N1CC2=C(Oc3c(Cl)cccc3C2)C1=O` [Example 20, (S)-2-(5-Chloro-3-oxo-3,9-dihydro-1H-chromeno[2,3-c]pyrrol-2-yl)-3-cyclohexyl-N-pyridin-2-yl-propionamide] stands 2.423; under `COc1ccc(OC)c2c1CC1=C(O2)C(=O)N([C@@H](CC2CCCCC2)C(=O)Nc2ccc(Cl)cn2)C1` [Example 15, (S)—N-(5-Chloro-pyridin-2-yl)-3-cyclohexyl-2-(5,8-dimethoxy-3-oxo-3,9-dihydro-1H-chromeno[2,3-c]pyrrol-2-yl)-propionamide], 0.428; under `COC(=O)c1ccc(NC(=O)[C@H](CC(C)C)N2CC3=C(Oc4c(Cl)cccc4C3)C2=O)nc1` [Example 22, 6-[(S)-2-(5-Chloro-3-oxo-3,9-dihydro-1H-chromeno[2,3-c]pyrrol-2-yl)-4-methyl-pentanoylamino]-nicotinic acid methyl ester], 9.858. `CC(C)C[C@@H](C(=O)Nc1ccc(Cl)cn1)N1CC2=C(Oc3cccc(Cl)c3C2)C1=O` [Example 4, (S)-2-(8-Chloro-3-oxo-3,9-dihydro-1H-chromeno[2,3-c]pyrrol-2-yl)-4-methyl-pentanoic acid (5-chloro-pyridin-2-yl)-amide]: the “SC 1.5:0.1” value was 3.18.

As for `COc1cccc2c1CC1=C(O2)C(=O)N([C@@H](CC2CCCCC2)C(=O)Nc2nccs2)C1` [Example 9, (S)-3-Cyclohexyl-2-(8-methoxy-3-oxo-3,9-dihydro-1H-chromeno[2,3-c]pyrrol-2-yl)-N-thiazol-2-yl-propionamide], the “SC 1.5:0.1” value is reported as 0.746.

Turning to `O=C(Nc1nccs1)[C@H](CC1CCCCC1)N1CC2=C(Oc3c(Cl)cccc3C2)C1=O` [Example 21, (S)-2-(5-Chloro-3-oxo-3,9-dihydro-1H-chromeno[2,3-c]pyrrol-2-yl)-3-cyclohexyl-N-thiazol-2-yl-propionamide], the “SC 1.5:0.1” value is 4.181. In the case of `O=C(Nc1nccs1)[C@H](CC1CCCCC1)N1CC2=C(Oc3cccc(Cl)c3C2)C1=O` [Example 2, (S)-2-(8-Chloro-3-oxo-3,9-dihydro-1H-chromeno[2,3-c]pyrrol-2-yl)-3-cyclohexyl-N-thiazol-2-yl-propionamide], the “SC 1.5:0.1” value is 4.051. Turning to `COc1ccc(OC)c2c1CC1=C(O2)C(=O)N([C@@H](CC2CCCCC2)C(=O)Nc2nccs2)C1` [Example 16, (S)-3-Cyclohexyl-2-(5,8-dimethoxy-3-oxo-3,9-dihydro-1H-chromeno[2,3-c]pyrrol-2-yl)-N-thiazol-2-yl-propionamide], the “SC 1.5:0.1” value was 2.439. For `COc1ccc(OC)c2c1CC1=C(O2)C(=O)N([C@@H](CC2CCCCC2)C(=O)Nc2ccccn2)C1` [Example 13, (S)-3-Cyclohexyl-2-(5,8-dimethoxy-3-oxo-3,9-dihydro-1H-chromeno[2,3-c]pyrrol-2-yl)-N-pyridin-2-yl-propionamide], the “SC 1.5:0.1” value is given as 0.304. Under `COc1cccc2c1CC1=C(O2)C(=O)N([C@@H](CC2CCCCC2)C(=O)Nc2ccc(Cl)cn2)C1` [Example 8, (S)—N-(5-Chloro-pyridin-2-yl)-3-cyclohexyl-2-(8-methoxy-3-oxo-3,9-dihydro-1H-chromeno[2,3-c]pyrrol-2-yl)-propionamide] stands 0.292.

`COC(=O)c1ccc(NC(=O)[C@H](CC(C)C)N2CC3=C(Oc4c(OC)ccc(OC)c4C3)C2=O)nc1` [Example 19, 6-[(S)-2-(5,8-Dimethoxy-3-oxo-3,9-dihydro-1H-chromeno[2,3-c]pyrrol-2-yl)-4-methyl-pentanoylamino]-nicotinic acid methyl ester]: the “SC 1.5:0.1” value amounted to 0.803.

For `CC(C)C[C@@H](C(=O)Nc1ccccn1)N1CC2=C(Oc3cccc(Cl)c3C2)C1=O` [Example 3, (S)-2-(8-Chloro-3-oxo-3,9-dihydro-1H-chromeno[2,3-c]pyrrol-2-yl)-4-methyl-pentanoic acid pyridin-2-ylamide], the “SC 1.5:0.1” value came out at 4.602.

Source of the values: patent publication US8178689B2, “Tricyclic compounds” (Hoffman-La Roche Inc., priority 2010, dated 2012).
